{"source": "patent US20240310368A1", "about": "“DETECTION KIT FOR CATECHOLAMINES AND METABOLITES THEREOF IN PLASMA/URINE AND DETECTION METHOD THEREOF” (Calibra Scientific, Inc., priority 2023, published 2024)", "key": {"[1]": {"assay": "Acceleration test of plasma samples with stabilizers (30° C. for 1.5 days, against control plasma stored at −95° C. to −65° C.), LC-MS/MS Area/IS Area", "experimental": "Samples were collected in EDTA-anticoagulant blood collection tubes and then rapidly subjected to […] centrifugation at 2-8° C. to separate plasma. 0.95 mL of the plasma was transferred into centrifuge tubes. After 50 μL of the stabilizer was added for uniform mixing, the plasma samples were stored by refrigeration or freezing.\n• (1) 500 μL of plasma/urine samples to be tested were taken, and 50 μL of the internal standard solution and 500 μL of the buffer solution were sequentially added for vertex mixing to obtain diluted samples. • (2) The magnetic medium composite material suspension was subjected to full vortex treatment to reach a suspension state, and then subsequent operation was performed. • (3) Different reagents were added into wells of a preprocessing plate according to the follow operation: adding 200 μL of the magnetic medium composite material suspension in column 1, adding 500 μL of the balance solution in column 2, adding 850 μL of the diluted samples in column 3, adding 500 μL of the balance solution in column 4, adding 200 μL of a rinsing solution in column 5, and adding 100 μL of the elution solution in column 6. • (4) An extraction operation procedure was carried out, as shown in Table 5.\nEach group of the plasma samples were stored at 30° C. for 1.5 days, and plasma without addition of any compounds stored at −95° C. to −65° C. was used as a control. […] The stabilizing effect of the single-component stabilizers on the plasma samples was investigated.\nThe stabilizers were mixed with plasma (the volume ratio of the stabilizers to plasma samples was 1:19), and high concentration plasma samples and low concentration plasma samples were prepared by the method provided in Example 1.\nWith plasma stored at −95° C. to −65° C. as a control, the above plasma samples were separately stored at 30° C. for 1.5 days to investigate the stability. […]"}, "[2]": {"assay": "pH adjustment ability of urine diluents to standard products and urine samples (pH test papers)", "format": "physicochemical, human", "conditions": "20 μL urine + 480 μL diluent + 50 μL internal standard solution + 500 μL buffer solution", "experimental": "In the present example, standard products of catecholamines in urine and urine samples from different sources (Sample 1 to Sample 6 are urine samples with different pH values) were selected to carry out an experiment. The urine samples were collected within 24 h by the method provided in Example 1, 20 μL of the urine samples were taken, 480 μL of urine diluents shown in Table 30 were added, respectively, then vortex mixing was performed, and 50 μL of an internal standard solution and 500 μL of a buffer solution were sequentially added to obtain urine samples to be tested. Then, pH test papers were used to detect whether the urine samples to be tested were neutral. The pH adjustment ability of different urine diluents to standard products and samples was investigated.\nHowever, some samples are still acidic or alkaline. Thus, ammonium acetate was added on the basis of the formic acid, and different proportions of the formic acid and the ammonium acetate were investigated."}}, "data": [{"compound": "O=CO", "note": "[formic acid]", "values": [{"measurement": "Ratio (Area/IS Area) E", "setting": "[1]; plasma at a high concentration level, plasma containing 0.5% of the acid, control plasma 0.624", "value": 0.295}, {"measurement": "Ratio (Area/IS Area) NE", "setting": "[1]; plasma at a high concentration level, plasma containing 0.5% of the acid, control plasma 1.522", "value": 0}, {"measurement": "Ratio (Area/IS Area) DA", "setting": "[1]; plasma at a high concentration level, plasma containing 0.5% of the acid, control plasma 2.27", "value": 0}, {"measurement": "Ratio (Area/IS Area) E", "setting": "[1]; plasma at a high concentration level, plasma containing 2.0% of the acid, control plasma 0.624", "value": 0}, {"measurement": "Ratio (Area/IS Area) NE", "setting": "[1]; plasma at a high concentration level, plasma containing 2.0% of the acid, control plasma 1.522", "value": 0}, {"measurement": "Ratio (Area/IS Area) DA", "setting": "[1]; plasma at a high concentration level, plasma containing 2.0% of the acid, control plasma 2.27", "value": 0}, {"measurement": "Ratio (Area/IS Area) E", "setting": "[1]; plasma at a low concentration level, plasma containing 0.5% of the acid, control plasma 0.079", "value": 0}, {"measurement": "Ratio (Area/IS Area) NE", "setting": "[1]; plasma at a low concentration level, plasma containing 0.5% of the acid, control plasma 0.219", "value": 0}, {"measurement": "Ratio (Area/IS Area) DA", "setting": "[1]; plasma at a low concentration level, plasma containing 0.5% of the acid, control plasma 0.233", "value": 0}, {"measurement": "Ratio (Area/IS Area) E", "setting": "[1]; plasma at a low concentration level, plasma containing 2.0% of the acid, control plasma 0.079", "value": 0}, {"measurement": "Ratio (Area/IS Area) NE", "setting": "[1]; plasma at a low concentration level, plasma containing 2.0% of the acid, control plasma 0.219", "value": 0}, {"measurement": "Ratio (Area/IS Area) DA", "setting": "[1]; plasma at a low concentration level, plasma containing 2.0% of the acid, control plasma 0.233", "value": 0}, {"measurement": "stabilizing effect on catecholamines in plasma", "setting": "[1]; single components as stabilizers", "value": "no obvious stabilizing effect"}, {"measurement": "pH adjustment ability of urine diluent to standard products and samples", "setting": "[2]", "value": "uniformly adjust most of samples to neutral"}]}]}
